Laboratory results published in PMC12406652 (Antimicrobial Agents and Chemotherapy, 2025).
Marks after values point to notes of the source that are not given here.

Tests used:
[1] = test system: healthy participants; assay: Safety and tolerability (treatment-emergent adverse events), studies VNRX-7145-101 and VNRX-7145-102; format: in vivo, human
Protocol: Safety was assessed via ongoing monitoring of adverse events, symptom-directed physical examinations, and changes in clinical laboratory measures, vital signs, and ECGs.

[2] = Plasma pharmacokinetics after single ascending doses of LED-E (VNRX-7145-101 Part 1); format: in vivo; details: human, oral; for Vd/F: read-out: Vz/F; for Tmax: median (range)
Protocol: (§1) Quantitation used separate weighted 1 /x^2 linear least-squares regression analyses generated from calibration standards. Exploratory screening for metabolites was performed for some samples. […] Single-dose plasma pharmacokinetic parameters were determined in Part 1, and both single-dose (Day 1) and multiple-dose (Day 12) parameters were determined in Part 2. […] Dose proportionality was analyzed using a power model in which pharmacokinetic exposure parameters and dose were converted to the natural log and linear regression results were reported, with the slope as the power estimate ([15]). […] In Part 2, achievement of steady-state concentrations was assessed using Tukey’s multiple comparison test for pre-dose and all dosing days (Days 2 to 10) for each dose level separately. In both studies, plasma pharmacokinetic parameters were calculated using WinNonlin (Certara; Radnor, PA), and urine pharmacokinetic parameters were calculated using SAS (SAS Institute; Cary, NC).

[3] = Plasma pharmacokinetics on Day 10 after multiple doses of LED-E q8h (VNRX-7145-101 Part 2, VNRX-7145-102 Part 2); format: in vivo, human; details: human, oral, plasma; for AUC / Cmax / Vd/F / half-life: geometric mean (CV %); for Vd/F: read-out: Vz/F; for Tmax: median (range); for half-life: read-out: t1/2 (converted)
Protocol: as §1, with “Single-dose plasma pharmacokinetic parameters were determined in Part 1, and both single-dose (Day 1) and multiple-dose (Day 12) parameters were determined in Part 2.” left out, “separately. […] Plasma pharmacokinetic parameters were calculated using noncompartmental analysis of the plasma and urine concentration-time data. […] AUCinf and Cmax were natural log-transformed before analysis, using a linear mixed effects model. […]” for “separately.”

[4] = Urinary pharmacokinetics after single doses of LED-E; format: in vivo, human; details: urine, geometric mean (geometric CV %); for CL renal: human, oral
Protocol: Plasma and urine pharmacokinetics samples were assayed for LED-E, LED, and CTB, as appropriate using validated bioanalytical methods. […] Quantitation used separate weighted 1 /x^2 linear least-squares regression analyses generated from calibration standards. Exploratory screening for metabolites was performed for some samples. In both studies, plasma pharmacokinetic parameters were calculated using WinNonlin (Certara; Radnor, PA), and urine pharmacokinetic parameters were calculated using SAS (SAS Institute; Cary, NC).

[5] = Urinary pharmacokinetics on Day 10 after multiple doses of LED-E q8h; format: in vivo, human; details: urine, geometric mean (geometric CV %); for CL renal: human, oral
Protocol: Quantitation used separate weighted 1 /x^2 linear least-squares regression analyses generated from calibration standards. Exploratory screening for metabolites was performed for some samples. […] Plasma pharmacokinetic parameters were calculated using noncompartmental analysis of the plasma and urine concentration-time data. […] AUCinf and Cmax were natural log-transformed before analysis, using a linear mixed effects model. […] In both studies, plasma pharmacokinetic parameters were calculated using WinNonlin (Certara; Radnor, PA), and urine pharmacokinetic parameters were calculated using SAS (SAS Institute; Cary, NC).

[6] = Urinary recovery on Day 10 after multiple doses of CTB + LED-E q8h (VNRX-7145-102 Part 3); details: for Ae0–8 / Fe0–8 / CL renal: urine, geometric mean (geometric CV %); for CL renal: human, oral, CLr
[7] = Plasma pharmacokinetics on Day 10 after multiple doses of CTB + LED-E q8h (VNRX-7145-102 Part 3); details: for AUC: AUCtau; for AUC / Cmax / half-life: geometric mean (CV %)
[8] = 1000 mg, single dose LED-E 1,000 mg, geometric mean (CV %)
[9] = single dose LED-E 100 mg, geometric mean (CV %)
[10] = single dose LED-E 200 mg, geometric mean (CV %)
[11] = single dose LED-E 300 mg, geometric mean (CV %)
[12] = single dose LED-E 500 mg, geometric mean (CV %)
[13] = single dose LED-E 800 mg, geometric mean (CV %)
[14] = multiple doses LED-E 500 mg q8h, after last dose (Day 10)
[15] = Day 10, CTB 400 mg + LED-E 300 mg q8h
[16] = Day 10, CTB 400 mg + LED-E 500 mg q8h
[17] = human, oral, Day 10, CTB 400 mg + LED-E 300 mg q8h
[18] = human, oral, Day 10, CTB 400 mg + LED-E 500 mg q8h

With `CCC(=O)N[C@H]1Cc2cccc(C(=O)OCOC(=O)C(CC)CC)c2OB1O` [Ledaborbactam etzadroxil] the “Participants with fatigue (TEAE)” value ([1]; LED-E-dosed participants) was 9.2%, the “Participants with headache (TEAE)” value ([1]; LED-E-dosed participants) was 20.2% and the Tolerability ([1]; all dose levels, alone or in combination with CTB) was “well tolerated”. The “Participants with gastrointestinal TEAEs” value ([1]; n = 109, pooled studies, all mild) was 27.5%, the “Serious or severe TEAEs” value ([1]; single or multiple doses, alone or with CTB) was “no serious or severe TEAEs” and the AUC(0-inf) [2, 8] was 2300 ng·h/mL. It also gave a Cmax [2, 8] of 1840 ng/mL, a Vd/F [2, 8] of 2880 L and a half-life ([2]; 1000 mg, single dose LED-E 1,000 mg, geometric mean (CV %), read-out: t1/2 (converted)) of 4.59 h. It also gave a half-life ([2]; across single doses LED-E 100 to 1,000 mg, read-out: Geometric mean t1/2) of 2.8 to 4.7 h, an AUC(0-inf) [2, 9] of 177 ng·h/mL and a Cmax [2, 9] of 167 ng/mL. The Vd/F [2, 9] was 2290 L, the half-life ([2]; single dose LED-E 100 mg, geometric mean (CV %), read-out: t1/2 (converted)) was 2.81 h and the Tmax ([2]; single dose LED-E 100 mg) was 0.5 h. For the same compound, the AUC(0-inf) [2, 10] was 249 ng·h/mL, the Cmax [2, 10] was 167 ng/mL and the half-life ([2]; single dose LED-E 200 mg, geometric mean (CV %), read-out: t1/2 (converted)) was 3.34 h. For the same compound, the Tmax ([2]; single dose LED-E 200 mg) was 0.5 h, the AUC(0-inf) [2, 11] was 439 ng·h/mL and the Cmax [2, 11] was 347 ng/mL. The half-life ([2]; single dose LED-E 300 mg, geometric mean (CV %), read-out: t1/2 (converted)) was 3.63 h, the Tmax ([2]; single dose LED-E 300 mg) was 0.5 h and the AUC(0-inf) [2, 12] was 1290 ng·h/mL. The Cmax [2, 12] was 917 ng/mL, the Vd/F [2, 12] was 2640 L and the half-life ([2]; single dose LED-E 500 mg, geometric mean (CV %), read-out: t1/2 (converted)) was 4.7 h. For the same compound, the AUC(0-inf) [2, 13] was 1720 ng·h/mL, the Cmax [2, 13] was 1160 ng/mL and the Vd/F [2, 13] was 2260 L. It also gave a half-life ([2]; single dose LED-E 800 mg, geometric mean (CV %), read-out: t1/2 (converted)) of 3.37 h, a Tmax ([2]; single dose LED-E 800 mg) of 0.5 h and an AUC ([3]; Day 10, LED-E 75 mg q8h, 0 to 8 h post-dose) of 85.5 ng·h/mL. It also gave a Cmax ([3]; Day 10, LED-E 75 mg q8h) of 122 ng/mL, a Vd/F ([3]; Day 10, LED-E 75 mg q8h) of 3880 L and a Tmax ([3]; Day 10, LED-E 75 mg q8h) of 0.5 h. For the same compound, the AUC ([3]; Day 10, LED-E 150 mg q8h) was 309 ng·h/mL, the Cmax ([3]; Day 10, LED-E 150 mg q8h) was 447 ng/mL and the Vd/F ([3]; Day 10, LED-E 150 mg q8h) was 3350 L. For the same compound, the Tmax ([3]; Day 10, LED-E 150 mg q8h) was 0.5 h, the AUC ([3]; Day 10, LED-E 300 mg q8h) was 480 ng·h/mL and the Cmax ([3]; Day 10, LED-E 300 mg q8h) was 629 ng/mL. The Vd/F ([3]; Day 10, LED-E 300 mg q8h) was 6080 L, the Tmax ([3]; Day 10, LED-E 300 mg q8h) was 0.5 h and the AUC ([3]; Day 10, LED-E 500 mg q8h) was 1050 ng·h/mL. For the same compound, the Cmax ([3]; Day 10, LED-E 500 mg q8h) was 919 ng/mL, the Vd/F ([3]; Day 10, LED-E 500 mg q8h) was 6290 L and the half-life ([3]; 75 mg, Day 10, LED-E 75 mg q8h) was 3.07 h. For the same compound, the half-life ([3]; 150 mg, Day 10, LED-E 150 mg q8h) was 4.78 h, the half-life ([3]; 300 mg, Day 10, LED-E 300 mg q8h) was 6.75 h and the half-life ([3]; 500 mg, Day 10, LED-E 500 mg q8h) was 9.14 h. For the same compound, the CL renal ([4]; single dose LED-E 300 mg) was 0.22 mL/min, the CL renal ([4]; single dose LED-E 500 mg) was 0.275 mL/min and the CL renal ([4]; single dose LED-E 800 mg) was 0.292 mL/min. The CL renal ([4]; single dose LED-E 1000 mg) was 0.393 mL/min, the “Ae0–8” value ([4]; single dose LED-E 300 mg) was 0.00779 (51.0) mg and the “Ae0–8” value ([4]; single dose LED-E 500 mg) was 0.0212 (38.4) mg. For the same compound, the “Ae0–48” value ([4]; single dose LED-E 500 mg) was 0.0212 (38.4) mg, the “Ae0–8” value ([4]; single dose LED-E 800 mg) was 0.0301 (49.2) mg and the “Ae0–48” value ([4]; single dose LED-E 800 mg) was 0.0301 (49.2) mg. For the same compound, the “Ae0–8” value ([4]; single dose LED-E 1000 mg) was 0.0542 (68.6) mg, the “Ae0–48” value ([4]; single dose LED-E 1000 mg) was 0.0542 (68.6) mg and the CL renal ([5]; multiple doses LED-E 150 mg q8h) was 0.247 mL/min. The CL renal ([5]; multiple doses LED-E 300 mg q8h) was 0.121 mL/min, the CL renal ([5]; multiple doses LED-E 500 mg q8h) was 0.433 mL/min and the “Ae0–48” value ([5]; multiple doses LED-E 75 mg q8h, after last dose (Day 10)) was “below the limit of quantification”. For the same compound, the “Ae0–48” value ([5]; multiple doses LED-E 150 mg q8h, after last dose (Day 10)) was 0.00488 (47.9) mg, the “Ae0–48” value ([5]; multiple doses LED-E 300 mg q8h, after last dose (Day 10)) was 0.00378 (218) mg and the “Ae0–8” value [5, 14] was 0.0273 (38.5) mg. For the same compound, the “Ae0–48” value [5, 14] was 0.0273 (38.5) mg, the “Ae0–48” value ([5]; multiple doses LED-E 500 mg q8h, after last dose (Day 10), listed as LED-E) was 0.03 mg and the “Ae0–8” value [6, 15] was 0.0113 (41.4) mg. For the same compound, the “Fe0–8” value [6, 15] was 0.00377 (41.4) %, the “Ae0–8” value [6, 16] was 0.0271 (58.4)^d mg and the “Fe0–8” value [6, 16] was 0.00542 (58.4)^d %. For the same compound, the “Fe0-8 recovered in urine, of the last dose” value ([6]; Day 10, across CTB 400 mg + LED-E 300 mg q8h and CTB 400 mg + LED-E 500 mg q8h) was “less than 0.01%”, the CL renal [6, 15] was 0.402 mL/min and the CL renal [6, 16] was 0.42 mL/min. The “Change in geometric mean AUCtau from the first to the last dose” value ([7]; Day 10, CTB 400 mg + LED-E 300 or 500 mg q8h, both dose groups) was “unchanged”, the AUC [7, 17] was 463 ng·h/mL and the AUC [7, 18] was 1090 ng·h/mL. The Cmax [7, 17] was 467 ng/mL, the Cmax [7, 18] was 1180 ng/mL and the Tmax ([7]; human, oral, Tmax, Day 10, CTB 400 mg + LED-E 300 mg q8h, median (range)) was 0.5 h. It also gave a half-life ([7]; human, oral, t1/2, Day 10, CTB 400 mg + LED-E 300 mg q8h) of 7.68 h and a half-life ([7]; human, oral, t1/2, Day 10, CTB 400 mg + LED-E 500 mg q8h) of 10.7 h.
